Measurements reported in US20130225694A1, “COMPOSITIONS AND METHODS OF INHIBITING RETINAL DEGENERATION” (Oklahoma Medical Research Foundation, priority 2012, published 2013).

How the values were obtained:
cone photoreceptors = assay: Cone function by single-flash photopic and flicker-flash ERG in rats; format: in vivo, rat; settings: 50 mg/kg, 60 minutes after administration, rod-suppressing background
Experimental: To evaluate cone function under conditions in which rod recovery is suppressed, rats were injected with PBN (50 mg/kg) or saline 60 minutes prior to recording single-flash photopic and flicker-flash ERG recordings. Rats were placed under a steady adapting field of 1.7 log cd·s/m^2 for at least 7 minutes. A single flash of 3.3 log cd·s/m^2 was presented under the same adapting field to elicit a maximal cone response. Cone responses were further evaluated by presenting 1.2 log cd·s/m^2 stimuli flickering at frequencies of 3-, 10-, 20-, and 30-Hz under the same adapting field.
To assess the effect of PBN administration on cone function under conditions when rod recovery was suppressed, single- and flicker-flash ERG recordings were performed under a steady, rod-suppressing background illumination 60 minutes after PBN administration.

LRAT = target: T1, LRAT (Rattus norvegicus, UniProt Q9JI61); assay: Retinyl ester production by LRAT in rat RPE microsomes; format: biochemical; settings: 1 mM PBN
T1 construct: from tissue; host or cells: rat eyecup/RPE microsomes
T1 sequence (Q9JI61 1-231): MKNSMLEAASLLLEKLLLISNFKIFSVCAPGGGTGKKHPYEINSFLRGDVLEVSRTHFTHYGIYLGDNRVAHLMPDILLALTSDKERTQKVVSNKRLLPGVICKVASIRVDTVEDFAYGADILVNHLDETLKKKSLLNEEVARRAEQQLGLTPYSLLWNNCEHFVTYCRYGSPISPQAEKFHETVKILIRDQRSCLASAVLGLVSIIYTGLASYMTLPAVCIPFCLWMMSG
Experimental: Isomerohydrolase activity assay and PBN inhibition—Rats were sacrificed, and eyes were enucleated and dissected to remove the anterior part including lens, vitreous, and retina. The remaining eyecups containing RPE were sonicated 3 times for 20 seconds in a cold 0.32 M sucrose/0.1 M sodium phosphate buffer (pH 7.4). The homogenate was centrifuged (20 minutes, 20,000 g) to sediment sclera, unbroken cells, nuclei and mitochondria. The obtained supernatant was recentrifuged (1 hour, 100,000 g), and the microsomal pellet was resuspended in 10 mM 1,3-bis[tris(hydroxymethyl)-methylamino]propane (BTP), (pH 8.0) and 100 mM NaCl, and stored at −80° C. All-trans-[11,12-^3H]-retinol (1 mCi/ml, 45.5 Ci/mmol, American Radiolabeled Chemical, Inc., St. Louis, Mo.) in N,N-dimethyl formamide was used as the substrate for the isomerohydrolase assay. […] The upper layer was collected, and the generated retinoids were analyzed by normal phase HPLC as described (38). […] The isomerohydrolase activity was calculated from the area of the 11-cis-retinol peak using Radiomatic 610TR software (Perkin Elmer, Boston, Mass.) with synthetic 11-cis-[^3H]-retinol as a standard. […] The inhibition constant for PBN was calculated from the following equation: […] where [I]=concentration of PBN, Vm^i=maximal velocity in the presence of Vm=maximal velocity in the absence of PBN. […]

rhodopsin = assay: Rhodopsin regeneration after topical eye drops in mice; format: in vivo, Balb/c mice; settings: for rhodopsin recovered in 1 h in the dark: 10% PBN eye drops, DA control is 100%
Experimental: Panel A: Application scheme and harvesting of the eye. 3 h group received 2 applications and 6 h group received 3 applications. Panel B: Rhodopsin content was measured as pmole/eye. In 1 h in the dark, untreated eyes (NT-LA 1 h DA, no treatment-light adapted followed by 1 hour dark adaptation) and vehicle-treated eyes recovered 75-80% rhodopsin [dark-adapted (DA) control is 100%], whereas 3 h PBN recovered only 43% and 6 h PBN only 29%. (***P<0.0001 compared to vehicle, n=8; ##p<0.005 between 3 h and 6 h group, n=8).
An eye drop formulation was used with various absorption enhancers for topical application of PBN to mouse eyes. […] One hour dark adaptation followed by light causes 75-80% recovery of bleachable rhodopsin in the Balb/c mice (FIG. 18B, NT-LA 1 h DA). The eye drop without PBN (vehicle) had no effect on rhodopsin regeneration (FIG. 18B, vehicle).
Eye drop formulations were prepared as described in Example 7 and contained 5% or 10% of a PBN derivative. The eye drop formulations were applied to Balb/c mice by the 6 h group application scheme shown in FIG. 18A, in which the eye drops were applied at 6, 3, and 0 h before dark adaptation. The eye drops were applied to completely light-adapted mouse eyes, and the mice were then moved to the dark for 1 h to allow the regeneration of bleachable rhodopsin. One hour dark adaptation followed by light causes […] recovery of bleachable rhodopsin in untreated mice (00, No Treatment). The eye drop without any nitrones (vehicle) had no effect on rhodopsin regeneration (000, vehicle).

CC(C)(C)/[N+]([O-])=C/c1ccccc1 [Compound 1, α-phenyl-N-tert-butyl nitrone]
effect on cone function (cone photoreceptors): not affected | LRAT inhibition (production of retinyl ester) (LRAT): not inhibited | rhodopsin recovered in 1 h in the dark (rhodopsin; 3 h group (2 applications)): 43% | rhodopsin recovered in 1 h in the dark (rhodopsin; 6 h group (3 applications)): 29% | % of Rhodopsin recovery (rhodopsin; 10% in eye drop at 6, 3 and 0 h before dark adaptation, LA + 1 h DA, DA control = 100): 48.67% | inhibition of rhodopsin regeneration as eye drop (rhodopsin; eye drop formulation, summary of Table 7): inhibited rhodopsin regeneration significantly | regeneration of bleachable rhodopsin (rhodopsin; one drop (~50 μl) containing 10% PBN, 1 h dark): significantly inhibited
